Data on three compounds can be found in paper PMC9029360, “Cyclooxygenase-Inhibiting Platinum(IV) Prodrugs with Potent Anticancer Activity” (Pharmaceutics, 2022).

Series [1] concerns HT29 colon cancer cell line. The series is described as follows: In vitro cytotoxicity MTT assay, HT29 colon. In kind it is cell-based. To be noted: n = 3. Background: Tetrazolium dyes change colour on reduction, which living cells bring about.
Series [2] deals with U87 glioblastoma. The series is described as follows: In vitro cytotoxicity MTT assay, U87 glioblastoma. In kind it is cell-based. To be noted: 72 h drug exposure, n = 3.
In series [3] the test system is MCF-7 breast. The series is described as follows: In vitro cytotoxicity MTT assay, MCF-7 breast. In kind it is cell-based. The settings on record: n = 3.
Series [4] deals with A2780 ovarian. The series is described as follows: In vitro cytotoxicity MTT assay, A2780 ovarian. The class given is cell-based. To be noted: 72 h drug exposure, n = 3.
Series [5] relates to H460 lung. The series is described as follows: In vitro cytotoxicity MTT assay, H460 lung. In kind it is cell-based. To be noted: n = 3.
Series [6] relates to A431 skin. The series is described as follows: In vitro cytotoxicity MTT assay, A431 skin. The class given is cell-based. The settings on record: n = 3.
The test system of series [7] is Du145 prostate cancer cell line. The series is described as follows: In vitro cytotoxicity MTT assay, Du145 prostate. In kind it is cell-based. To be noted: n = 3.
Series [8] relates to BE2-C neuroblastoma. The series is described as follows: In vitro cytotoxicity MTT assay, BE2-C neuroblastoma. The class given is cell-based. The settings on record: 72 h drug exposure, n = 3.
Series [9] concerns SJ-G2 glioblastoma. The series is described as follows: In vitro cytotoxicity MTT assay, SJ-G2 glioblastoma. The class given is cell-based. To be noted: 72 h drug exposure, n = 3.
Series [10] deals with MIA pancreas. The series is described as follows: In vitro cytotoxicity MTT assay, MIA pancreas. The class given is cell-based. To be noted: 72 h drug exposure, n = 3.
The test system of series [11] is MCF10A breast cell line (non-tumour derived). The series is described as follows: In vitro cytotoxicity MTT assay, non-tumour MCF10A breast. The class given is cell-based. The settings on record: MCF10A (non-cancerous), 72 h drug exposure, n = 3.
In series [12] the test system is cisplatin-resistant ADDP ovarian (subclone of A2780 cell line). The series is described as follows: In vitro cytotoxicity MTT assay, cisplatin-resistant ADDP ovarian. In kind it is cell-based. The settings on record: for GI50: ADDP (cisplatin-resistant), MTT, 72 h drug exposure, n = 3.
Series [13] concerns the target T1, human COX-2 (Homo sapiens, UniProt P35354).
T1 sequence (P35354 18-604): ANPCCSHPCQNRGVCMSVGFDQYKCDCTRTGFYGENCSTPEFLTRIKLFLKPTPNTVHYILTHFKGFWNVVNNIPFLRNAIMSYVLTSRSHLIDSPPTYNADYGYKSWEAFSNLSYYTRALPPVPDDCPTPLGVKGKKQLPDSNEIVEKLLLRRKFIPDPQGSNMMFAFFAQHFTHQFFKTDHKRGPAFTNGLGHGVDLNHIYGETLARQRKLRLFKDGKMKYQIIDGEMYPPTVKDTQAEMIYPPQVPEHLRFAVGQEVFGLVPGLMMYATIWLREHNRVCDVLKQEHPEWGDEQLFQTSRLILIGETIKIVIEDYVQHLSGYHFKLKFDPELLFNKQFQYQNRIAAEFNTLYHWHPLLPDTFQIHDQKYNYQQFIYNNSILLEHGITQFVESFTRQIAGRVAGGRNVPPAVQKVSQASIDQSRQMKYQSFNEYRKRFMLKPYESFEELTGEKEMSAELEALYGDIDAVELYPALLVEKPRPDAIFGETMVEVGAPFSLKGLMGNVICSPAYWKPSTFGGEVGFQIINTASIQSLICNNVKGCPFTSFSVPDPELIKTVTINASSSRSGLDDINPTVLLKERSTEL
Description: (§1) The preparation of standards and samples and the completion of the assay were carried out following the manufacturer’s protocol. As described below, the completion of the assay required three main steps: the preparation of standards, the COX reaction and EIA.
(§2) The preparation of standards involved serial dilution of the prostaglandin (PG)-screening ELISA standard with ELISA buffer.
(§3) All tubes were incubated for 10 min at 37 °C. To initiate the reaction, arachidonic acid (10 µL) was added to each tube. This was incubated for 30 s at 37 °C before stannous chloride (30 µL) was added to stop enzyme catalysis. The tubes were removed from the water bath and vortexed, then incubated for five minutes at room temperature.
(§4) For EIA, ELISA buffer (100 µL) was added to non-specific binding (NSB) wells and ELISA buffer (50 µL) was added to maximum binding (B0) wells; 50 µL from each PG screening standard was added to the standard wells in duplicate. A background sample (50 µL) and COX 100% initial activity samples (50 µL) were added to the wells in duplicate. Each inhibitor sample (50 µL) was added to the wells in triplicate. PG screening acetylcholinesterase (AChE) tracer (50 µL) was added to all wells except for the total activity and blank wells. PG screening ELISA antiserum (50 µL) was added to each well except for the total activity, NSB and blank wells. The plate was covered with plastic film and incubated for 18 h at room temperature on an orbital shaker. The wells were emptied and rinsed with wash buffer five times. Ellman’s reagent (200 µL) was added to each well, followed by AChE tracer (5 µL) in the total activity well. The plate was covered with plastic film and left to develop in the dark using an orbital shaker at room temperature for one hour. The absorbance was recorded at 405 nm using a plate reader.

The target in series [14] is T1, human COX-2. The series is described as follows: biochemical. To be noted: read-out: COX-2 inhibition.
Description: as §1, §2, §3, §4
For series [15], the system named is A2780 (ovarian) and ADDP (cisplatin-resistant ovarian) cancer cell lines. The series is described as follows: Cellular platinum accumulation by ICP-MS. In kind it is cell-based. The settings on record: 4 h.
The subject of the next series is ADDP cell line. The series is described as follows: Cellular platinum accumulation by ICP-MS, ADDP. The class given is cell-based.
Series [16] has as its system HT29 colon cancer cell line. The settings on record: MTT, 72 h, ref [2] Macias et al., Eur. J. Chem. 2015; cited from earlier work.
The test system of series [17] is U87 glioblastoma. The settings on record: MTT, 72 h, ref [2] Macias et al., Eur. J. Chem. 2015; cited from earlier work.
Series [18] deals with MCF-7 breast. To be noted: MTT, 72 h, ref [2] Macias et al., Eur. J. Chem. 2015; cited from earlier work.
Series [19] relates to A2780 ovarian. To be noted: MTT, 72 h, ref [2] Macias et al., Eur. J. Chem. 2015; cited from earlier work.
The test system of series [20] is H460 lung. The settings on record: MTT, 72 h, ref [2] Macias et al., Eur. J. Chem. 2015; cited from earlier work.
Series [21] relates to A431 skin. To be noted: MTT, 72 h, ref [2] Macias et al., Eur. J. Chem. 2015; cited from earlier work.
Series [22] concerns Du145 prostate cancer cell line. The settings on record: MTT, 72 h, ref [2] Macias et al., Eur. J. Chem. 2015; cited from earlier work.
Series [23] concerns BE2-C neuroblastoma. To be noted: MTT, 72 h, ref [2] Macias et al., Eur. J. Chem. 2015; cited from earlier work.
Series [24] relates to SJ-G2 glioblastoma. The settings on record: MTT, 72 h, ref [2] Macias et al., Eur. J. Chem. 2015; cited from earlier work.
For series [25], the system named is MIA pancreas. The settings on record: MTT, 72 h, ref [2] Macias et al., Eur. J. Chem. 2015; cited from earlier work.
Series [26] concerns MCF10A breast cell line (non-tumour derived). The settings on record: MTT, 72 h, ref [2] Macias et al., Eur. J. Chem. 2015; cited from earlier work.
For series [27], the system named is cisplatin-resistant ADDP ovarian (subclone of A2780 cell line). To be noted: MTT, 72 h, ref [2] Macias et al., Eur. J. Chem. 2015; cited from earlier work.
Series [28] is described as follows: Lipophilicity by RP-HPLC (log kw). The class given is physicochemical. The settings on record: capacity factor extrapolated to 100% water. Here is the method:
HPLC experiments were executed on an Agilent (Melbourne, Australia) Technologies 1260 Infinity instrument equipped with a Phenomenex (Sydney, Australia) Onyx^TM Monolithic C18 reverse phase column (100 × 4.6 mm, 130 Å). The mobile phase was comprised of 0.06% TFA in water (solvent A) and 0.06% TFA in an acetonitrile-water mixture (9:1) (solvent B). A sample injection volume of 10 µL was used at a flow rate of 1 mL/min and eluted over a gradient of 0–100% for 15 min. A PDA was used to detect the eluting peaks at 254 nm. Lipophilicity experiments to determine logkw values were undertaken following previously published methods. Rather than a gradient, different isocratic ratios ranging from 28–56% of solvent B were employed and the retention times measured for each complex. Potassium iodide was used as an external dead volume marker to determine the dead time of the column. The following equation was used to calculate the capacity factors:(1) k=tr−t0/t0 where k is the capacity factor, tr is the retention time of the analyte, and t0 is the dead time. Following this, log k was plotted against the percentage of ACN. Five different concentrations of ACN were used to produce a linear plot comprised of R^2 > 0.99. This graph produced the following equation:(2) logk=Sφ+logkw where S is the slope, φ is the % ACN, and the y-intercept, represented as logkw , is the capacity factor of the compound in 100% water.
Lipophilicity studies were carried out to determine the logkw of each complex. This was ascertained through a RP-HPLC based approach whereby complexes were eluted at several isocratic ratios. In turn, retention times were employed as in Equation (1), where the capacity factor (k) was calculated. The log k value at each ratio was then plotted against the percentage of the organic solvent used in solvent B, producing a linear equation that allowed for logkw to be extrapolated (Figure S43). The logkw value represents the retention factor in a 100% aqueous solution; thus, higher values indicate more lipophilic compounds. While this method for determining lipophilicity is slightly different from the shake-flask method, it has been used previously to compare a series of complexes that are structurally similar and is fitting for this group of complexes.

Series [29] is described as follows: Preliminary NMR reduction study with ascorbic acid. In kind it is physicochemical. To be noted: D2O with 10X PBS, 37 °C. The procedure:
Given that 1–4 were designed on the premise of functionating as prodrugs, it is anticipated that these complexes be reduced to platinum(II) and release their respective axial ligands, which will allow each component to exert its activity. To explore this possibility, preliminary NMR reduction studies were undertaken for 3. The sample was prepared in D2O with 10X PBS before ascorbic acid was added, and the sample was monitored by ^1H NMR at 37 °C. After the addition of ascorbic acid, resonances corresponding to the platinum(II) species appeared, with the intensities increasing over time, while the peaks correlating to platinum(IV) species decreased (Figure 5). Following this, ^195Pt NMR was carried out in order to confirm that the platinum(II) species remained intact.

Where two headings read alike, the source gives them in different places.

Consider `CC(=O)Oc1ccccc1C(=O)O` [Aspirin, aspirin], for which the GI50 (commonly the concentration that inhibits growth by half) in series [1] (Homo sapiens, HT-29, 72 h drug exposure) was above 50000 nM; in the series with U87 glioblastoma [2], above 50000 nM; with MCF-7 breast [3] (Homo sapiens, MCF7, 72 h drug exposure) it was above 50000 nM; in the series on A2780 ovarian [4] (Homo sapiens), above 50000 nM; in the series with H460 lung [5] (Homo sapiens, NCI-H460, 72 h drug exposure) it was above 50000 nM; with A431 skin [6] (Homo sapiens, A-431, 72 h drug exposure), above 50000 nM. Further, the GI50 is above 50000 nM in series [7] (Homo sapiens, DU-145, 72 h drug exposure); above 50000 nM with BE2-C neuroblastoma [8] (Homo sapiens, BE(2)-C); above 50000 nM with SJ-G2 glioblastoma [9]; above 50000 nM in the series on MIA pancreas [10]; above 50000 nM in series [11] (Homo sapiens, MCF-10A); above 50000 nM in series [12] (Homo sapiens, A2780). Moreover, the COX-2 inhibition result at human COX-2 [13] (at 7 µM) and at human COX-2 [13] (at 70 µM) was “No inhibition” each time. Moreover, the inhibition (commonly the relative decrease from the control value, in per cent) at 700 µM on human COX-2 [14] was found to be 19%.

In the case of `N.N.[Cl][Pt][Cl]` [Cisplatin, cisplatin], the “fold less active than PHENSS(IV) (GI50 values)” value in series [12] (ADDP cell line) is given as ~ 22 fold. For the same compound, the “fold decrease in activity in the cisplatin-resistant ADDP cell line compared to the A2780 cell line” value in [12] (ratio of GI50 values ADDP vs A2780) was 28 fold. Besides, the “cellular platinum uptake (rank in words)” value in series [15] is listed as “lowest uptake”. Besides, in the series on ADDP cell line, the “uptake level, fold lower than PHENSS(IV)” value was “~ two-fold”. Moreover, the GI50 in series [16] is 11300 nM; in the series on U87 glioblastoma [17], 3800 nM; in the series on MCF-7 breast [18] it was 6500 ± 800 nM; in the series on A2780 ovarian [19], 1000 ± 100 nM; in the series on H460 lung [20], 900 ± 200 nM; in the series on A431 skin [21], 2400 ± 300 nM. The GI50 in series [22] was 1200 ± 100 nM; in the series with BE2-C neuroblastoma [23], 1900 ± 200 nM; with SJ-G2 glioblastoma [24], 400 nM; in the series on MIA pancreas [25], 7500 nM; in series [26], 5200 nM; in series [27] it was 28000 nM.

As to “[Pt(Phen)(SSDACH)(Aspirin)(OH)](NO3)2 [compound 3]”, the GI50 in series [1] (72 h drug exposure) is 140 ± 10 nM; in the series with U87 glioblastoma [2], 600 ± 60 nM; in the series with MCF-7 breast [3] (72 h drug exposure) it was 390 ± 80 nM; in the series on A2780 ovarian [4], 260 ± 30 nM; in the series on H460 lung [5] (72 h drug exposure), 350 ± 20 nM; in the series with A431 skin [6] (72 h drug exposure), 670 ± 100 nM. Further, the GI50 in series [7] (72 h drug exposure) came out at 140 ± 10 nM; with BE2-C neuroblastoma [8], 620 ± 90 nM; with SJ-G2 glioblastoma [9], 360 ± 60 nM; in the series on MIA pancreas [10] it was 160 ± 30 nM; in series [11], 210 ± 29 nM; in [12] it was 200 nM. For the same compound, in series [28], the Log kw was 0.41. For the same compound, the “reduction by ascorbic acid (1H and 195Pt NMR)” value in [29] is given as “reduction to its platinum(II) congener”.
